ChEMBL document CHEMBL5380850, “Discovery of the First Raptor (Regulatory-Associated Protein of mTOR) Inhibitor as a New Type of Antiadipogenic Agent” (J Med Chem, 2023)
Activity calls are given as the source filed them. The calls are words filed in the database; no cut-off is given here.

Experiments:
3T3-L1 [1] = assay: Anti-adipogenic activity against mouse 3T3-L1 cells assessed as decrease in triglyceride level at 1 uM by Oil Red O staining based spectroscopic analysis; assay type: functional; design: scale not given: the % may be the effect or the level left
3T3-L1 [2] = assay: Anti-adipogenic activity against mouse 3T3-L1 cells assessed as decrease in triglyceride level incubated for […] by Oil Red O staining based microscopic analysis; assay type: functional, cell-based
[3] = molecular target: Regulatory-associated protein of mTOR (Mus musculus) (UniProt Q8K4Q0); assay: Binding affinity to Raptor in mouse 3T3-L1 cells at 1 to 10 uM incubated overnight by pull-down assay; conditions: dose 1-10 µM
Chain of Regulatory-associated protein of mTOR (Mus musculus) (Q8K4Q0 whole entry, looked up): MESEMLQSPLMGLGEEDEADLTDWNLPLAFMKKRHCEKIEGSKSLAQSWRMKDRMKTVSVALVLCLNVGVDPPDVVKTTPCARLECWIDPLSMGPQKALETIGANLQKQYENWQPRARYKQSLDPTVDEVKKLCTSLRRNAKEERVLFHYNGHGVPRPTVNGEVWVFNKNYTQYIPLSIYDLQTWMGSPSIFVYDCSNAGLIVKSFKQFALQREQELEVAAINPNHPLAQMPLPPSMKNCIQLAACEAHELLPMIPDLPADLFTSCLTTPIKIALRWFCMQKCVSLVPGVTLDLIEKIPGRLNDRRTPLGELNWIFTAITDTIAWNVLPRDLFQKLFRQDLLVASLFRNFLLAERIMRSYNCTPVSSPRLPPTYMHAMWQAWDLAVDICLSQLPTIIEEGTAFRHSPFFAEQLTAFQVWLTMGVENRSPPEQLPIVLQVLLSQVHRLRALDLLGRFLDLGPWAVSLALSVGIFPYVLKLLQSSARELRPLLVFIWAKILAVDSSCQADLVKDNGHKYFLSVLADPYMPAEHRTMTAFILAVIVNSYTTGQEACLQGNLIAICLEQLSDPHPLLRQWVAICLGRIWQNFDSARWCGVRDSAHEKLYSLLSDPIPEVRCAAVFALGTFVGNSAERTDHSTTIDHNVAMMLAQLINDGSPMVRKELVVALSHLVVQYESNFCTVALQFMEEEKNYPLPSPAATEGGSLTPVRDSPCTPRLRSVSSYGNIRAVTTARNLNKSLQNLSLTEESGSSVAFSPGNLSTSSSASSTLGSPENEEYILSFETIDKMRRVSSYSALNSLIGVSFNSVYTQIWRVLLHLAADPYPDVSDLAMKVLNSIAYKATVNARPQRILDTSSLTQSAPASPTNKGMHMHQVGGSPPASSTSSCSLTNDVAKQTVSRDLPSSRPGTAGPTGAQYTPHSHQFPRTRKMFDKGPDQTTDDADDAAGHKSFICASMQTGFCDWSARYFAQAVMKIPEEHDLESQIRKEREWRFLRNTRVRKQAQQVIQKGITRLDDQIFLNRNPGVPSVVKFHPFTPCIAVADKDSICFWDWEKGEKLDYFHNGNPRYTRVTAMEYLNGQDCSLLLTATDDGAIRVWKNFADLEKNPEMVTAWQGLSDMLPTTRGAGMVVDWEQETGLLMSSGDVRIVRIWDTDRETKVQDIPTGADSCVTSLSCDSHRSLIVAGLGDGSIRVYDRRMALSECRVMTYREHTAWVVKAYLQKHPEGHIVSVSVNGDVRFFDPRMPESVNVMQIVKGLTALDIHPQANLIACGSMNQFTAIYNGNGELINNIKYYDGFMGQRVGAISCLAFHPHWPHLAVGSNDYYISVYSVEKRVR

SMILES | Activity (3T3-L1 [1]) [%] | other results
C=C(C)[C@@]12OC3(c4ccccc4)O[C@@H]1[C@@H]1[C@@H](Cl)[C@@](O)(CO)[C@@H](O)[C@]4(O)C(=O)C(C)=C[C@H]4[C@@]1(O3)[C@H](C)[C@H]2OC(C)=O | >50 | –
C=C(C)[C@@]12OC3(/C=C/C=C/CCCCC)O[C@@H]1[C@@H]1[C@@H]4O[C@]4(COC(=O)c4ccccc4)[C@@H](O)[C@]4(O)C(=O)C(C)=C[C@H]4[C@@]1(O3)[C@H](C)[C@H]2OC(C)=O | >50 | –
C=C(C)[C@@]12OC3(/C=C/C=C/CCCCC)O[C@@H]1[C@@H]1[C@@H]4O[C@]4(COC(C)=O)[C@@H](O)[C@]4(O)C(=O)C(C)=C[C@H]4[C@@]1(O3)[C@H](C)[C@H]2OC(=O)c1ccccc1 | >50 | –
C=C(C)[C@@]12OC3(c4ccccc4)O[C@@H]1[C@@H]1[C@@H]4O[C@]4(CO)[C@@H](O)[C@]4(O)C(=O)C(C)=C[C@H]4[C@@]1(O3)[C@H](C)[C@H]2OC(=O)CC | >50 | –
C=C(C)[C@@]12OC3(c4ccccc4)O[C@@H]1[C@@H]1[C@H](O)[C@](Cl)(CO)[C@@H](O)[C@]4(O)C(=O)C(C)=C[C@H]4[C@@]1(O3)[C@H](C)[C@H]2OC(C)=O | >50 | –
C=C(C)[C@@]12OC3(c4ccccc4)O[C@@H]1[C@@H]1[C@@H]4O[C@]4(CO)[C@@H](O)[C@]4(O)C(=O)C(C)=C[C@H]4[C@@]1(O3)[C@H](C)[C@H]2OC(=O)c1ccccc1 | >50 | –
C=C(C)[C@@]12OC3(/C=C/C=C/CCCCC)O[C@@H]1[C@@H]1[C@@H]4O[C@]4(CO)[C@@H](O)[C@]4(O)C(=O)C(C)=C[C@H]4[C@@]1(O3)[C@H](C)[C@H]2OC(=O)c1ccccc1 | >50 | –
C=C(C)[C@@]12OC3(c4ccccc4)O[C@@H]1[C@@H]1[C@@H](Cl)[C@@](O)(COC(=O)c4ccccc4)[C@@H](O)[C@]4(O)C(=O)C(C)=C[C@H]4[C@@]1(O3)[C@H](C)[C@H]2OC(C)=O | >50 | –
C=C(C)[C@@]12OC3(/C=C/C=C/CCCCC)O[C@@H]1[C@@H]1[C@@H]4O[C@]4(CO)[C@@H](O)[C@]4(O)C(=O)C(C)=C[C@H]4[C@@]1(O3)[C@H](C)[C@H]2OC(=O)CCC | >50 | –
C=C(C)[C@@]12OC3(c4ccccc4)O[C@@H]1[C@@H]1[C@@H](Cl)[C@@](O)(CO)[C@@H](O)[C@]4(O)C(=O)C(C)=C[C@H]4[C@@]1(O3)[C@H](C)[C@H]2OC(=O)c1ccccc1 | >50 | –
C=C(C)[C@@]12OC3(/C=C/C=C/CCCCC)O[C@@H]1[C@@H]1[C@@H]4O[C@]4(COC(C)=O)[C@@H](OC(C)=O)[C@]4(O)C(=O)C(C)=C[C@H]4[C@@]1(O3)[C@H](C)[C@H]2OC(=O)c1ccccc1 | >50 | –
C=C(C)[C@@]12OC3(c4ccccc4)O[C@@H]1[C@@H]1[C@H](O)[C@](Cl)(COC(=O)c4ccccc4)[C@@H](OC(=O)CCCCCNC(=O)CCCC[C@@H]4SC[C@@H]5NC(=O)N[C@@H]54)[C@]4(O)C(=O)C(C)=C[C@H]4[C@@]1(O3)[C@H](C)[C@H]2OC(C)=O | – | IC50 (3T3-L1 [2]): 1.05 µM; Activity [3]: Active
C=C(C)[C@@]12OC3(c4ccccc4)O[C@@H]1[C@@H]1[C@@H]4O[C@]4(COC(C)=O)[C@@H](O)[C@]4(O)C(=O)C(C)=C[C@H]4[C@@]1(O3)[C@H](C)[C@H]2OC(=O)c1ccccc1 | >50 | –
C=C(C)[C@@]12OC3(c4ccccc4)O[C@@H]1[C@@H]1[C@@H]4O[C@]4(COC(=O)c4ccccc4)[C@@H](O)[C@]4(O)C(=O)C(C)=C[C@H]4[C@@]1(O3)[C@H](C)[C@H]2OC(=O)c1ccccc1 | >50 | –
C=C(C)[C@@]12OC3(c4ccccc4)O[C@@H]1[C@@H]1[C@H](O)[C@](Cl)(CO)[C@@H](O)[C@]4(O)C(=O)C(C)=C[C@H]4[C@@]1(O3)[C@H](C)[C@H]2OC(=O)c1ccccc1 | >50 | –
C=C(C)[C@@]12OC3(c4ccccc4)O[C@@H]1[C@@H]1[C@@H]4O[C@]4(COC(=O)c4ccccc4)[C@@H](O)[C@]4(O)C(=O)C(C)=C[C@H]4[C@@]1(O3)[C@H](C)[C@H]2OC(C)=O | >50 | –
C=C(C)[C@@]12OC3(c4ccccc4)O[C@@H]1[C@@H]1[C@@H]4O[C@]4(CO)[C@@H](O)[C@]4(O)C(=O)C(C)=C[C@H]4[C@@]1(O3)[C@H](C)[C@H]2OC(C)=O | >50 | –
C=C(C)[C@@]12OC3(/C=C/C=C/CCCCC)O[C@@H]1[C@@H]1[C@@H]4O[C@]4(COC(C)=O)[C@@H](OC(C)=O)[C@]4(O)C(=O)C(C)=C[C@H]4[C@@]1(O3)[C@H](C)[C@H]2OC(C)=O | >50 | –
C=C(C)[C@@]12OC3(/C=C/C=C/CCCCC)O[C@@H]1[C@@H]1[C@@H]4O[C@]4(COC(C)=O)[C@@H](O)[C@]4(O)C(=O)C(C)=C[C@H]4[C@@]1(O3)[C@H](C)[C@H]2OC(C)=O | >50 | –
C=C(C)[C@@]12OC3(c4ccccc4)O[C@@H]1[C@@H]1[C@@H]4O[C@]4(CO)[C@@H](O)[C@]4(O)C(=O)C(C)=C[C@H]4[C@@]1(O3)[C@H](C)[C@H]2OC(=O)CCC | >50 | –
C=C(C)[C@@]12OC3(c4ccccc4)O[C@@H]1[C@@H]1[C@@H]4O[C@]4(CO)[C@@H](O)[C@]4(O)C(=O)[C@@H](C)C[C@H]4[C@@]1(O3)[C@H](C)[C@H]2OC(=O)c1ccccc1 | >50 | –
C=C(C)[C@@]12OC3(/C=C/C=C/CCCCC)O[C@@H]1[C@@H]1[C@@H]4O[C@]4(CO)[C@@H](O)[C@]4(O)C(=O)C(C)=C[C@H]4[C@@]1(O3)[C@H](C)[C@H]2OC(C)=O | >50 | –
C=C(C)[C@@]12OC3(c4ccccc4)O[C@@H]1[C@@H]1[C@@H]4O[C@]4(COC(C)=O)[C@@H](O)[C@]4(O)C(=O)C(C)=C[C@H]4[C@@]1(O3)[C@H](C)[C@H]2OC(C)=O | >50 | –
